Measurements reported in patent US10947242B2, “[1,2,4]triazolo[1,5and#8208;A]pyrimidine compounds as PDE2 inhibitors” (Janssen Pharmaceutica NV, priority 2016, dated 2021).
Like-named read-outs stand apart in the source and are kept apart here.

Assays:
Type in all cases: biochemical
[1] = biological target: T1, Human recombinant PDE2A (hPDE2A) (Homo sapiens, UniProt O00408); assay: In vitro assay PDE2A (SPA, 3H-cGMP hydrolysis); settings: for IC50: read-out: hPDE2A pIC50 (converted); for Emax: read-out: hPDE2A Emax
T1 construct: His tag (inferred from metal chelate purification); made in house; host or cells: Sf9 insect cells (baculovirus)

[2] = biological target: T2, Human recombinant PDE3A (hPDE3A) (Homo sapiens, UniProt Q14432); assay: In vitro assay PDE3A (SPA, 3H-cAMP hydrolysis); settings: for IC50: hPDE3B pIC50, read-out: pIC50 (converted); for Emax: read-out: hPDE3B Emax, read-out: Emax;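 for all read-outs here: the method names PDE3A and the table heading PDE3B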
T2 construct: purchased Scottish Biomedical; host or cells: Sf9 insect cells
Protocol: Human recombinant PDE3A (hPDE3A) was supplied as a partially purified insect cell lysate by Scottish Biomedical, it was cloned from human brain and expressed in Sf9 cells. Tested compounds were dissolved and diluted in 100% DMSO to a concentration 100 fold of the final concentration in the assay. Compound dilutions (0.4 μl) were added in 384 well plates to 20 μl of incubation buffer (50 mM Tris pH 7.8, 8.3 mM MgCl2, 1.7 mM EGTA). 10 μl of hPDE3A enzyme in incubation buffer was added and the reaction was started by addition of 10 μl substrate to a final concentration of 0.4 μM cAMP and 2.4 μCi/ml [^3H]-cAMP. The reaction was incubated for 60 min at room temperature. […] After sedimentation of the beads during 30 min the radioactivity was measured in a Perkin Elmer Topcount scintillation counter and results were expressed as cpm. For blanc values the enzyme was omitted from the reaction and replaced by incubation buffer. Control values were obtained by addition of a final concentration of 1% DMSO instead of compound.

[3] = biological target: T3, Human recombinant PDE10A (hPDE10A) (Homo sapiens, UniProt Q9Y233); assay: In vitro assay PDE10A, human clone (SPA, 3H-cAMP hydrolysis); settings: human clone (h), default; for Emax: read-out: hPDE10A2 Emax; for IC50: read-out: hPDE10A2 pIC50 (converted)
T3 construct: His tag (inferred from metal chelate purification); made in house; host or cells: Sf9 insect cells (baculovirus)
Protocol: Rat recombinant PDE10A (rPDE10A2) was expressed in Sf9 cells using a recombinant rPDE10A baculovirus construct. […] Tested compounds were dissolved and diluted in 100% DMSO to a concentration 100 fold of the final concentration in the assay. Human recombinant PDE10A ([…]) was expressed in Sf9 cells using a recombinant hPDE10A baculovirus that was made and amplified in house. […] Compound dilutions (0.4 μl) were added in 384 well plates to 20 μl of incubation buffer (50 mM Tris pH 7.8, 8.3 mM MgCl2, 1.7 mM EGTA). 10 μl of rPDE10A or hPDE10A enzyme in incubation buffer was added and the reaction was started by addition of 10 μl substrate to a final concentration of 60 nM cAMP and 0.008 μCi ^3H-cAMP. The reaction was incubated for 60 minutes at room temperature. […] After sedimentation of the beads during 30 minutes the radioactivity was measured in a Perkin Elmer Topcount scintillation counter and results were expressed as cpm. For blanc values the enzyme was omitted from the reaction and replaced by incubation buffer. Control values were obtained by addition of a final concentration of 1% DMSO instead of compound.

[4] = human recombinant PDE2A, 10 μM cGMP substrate

T1 sequence (O00408 whole entry): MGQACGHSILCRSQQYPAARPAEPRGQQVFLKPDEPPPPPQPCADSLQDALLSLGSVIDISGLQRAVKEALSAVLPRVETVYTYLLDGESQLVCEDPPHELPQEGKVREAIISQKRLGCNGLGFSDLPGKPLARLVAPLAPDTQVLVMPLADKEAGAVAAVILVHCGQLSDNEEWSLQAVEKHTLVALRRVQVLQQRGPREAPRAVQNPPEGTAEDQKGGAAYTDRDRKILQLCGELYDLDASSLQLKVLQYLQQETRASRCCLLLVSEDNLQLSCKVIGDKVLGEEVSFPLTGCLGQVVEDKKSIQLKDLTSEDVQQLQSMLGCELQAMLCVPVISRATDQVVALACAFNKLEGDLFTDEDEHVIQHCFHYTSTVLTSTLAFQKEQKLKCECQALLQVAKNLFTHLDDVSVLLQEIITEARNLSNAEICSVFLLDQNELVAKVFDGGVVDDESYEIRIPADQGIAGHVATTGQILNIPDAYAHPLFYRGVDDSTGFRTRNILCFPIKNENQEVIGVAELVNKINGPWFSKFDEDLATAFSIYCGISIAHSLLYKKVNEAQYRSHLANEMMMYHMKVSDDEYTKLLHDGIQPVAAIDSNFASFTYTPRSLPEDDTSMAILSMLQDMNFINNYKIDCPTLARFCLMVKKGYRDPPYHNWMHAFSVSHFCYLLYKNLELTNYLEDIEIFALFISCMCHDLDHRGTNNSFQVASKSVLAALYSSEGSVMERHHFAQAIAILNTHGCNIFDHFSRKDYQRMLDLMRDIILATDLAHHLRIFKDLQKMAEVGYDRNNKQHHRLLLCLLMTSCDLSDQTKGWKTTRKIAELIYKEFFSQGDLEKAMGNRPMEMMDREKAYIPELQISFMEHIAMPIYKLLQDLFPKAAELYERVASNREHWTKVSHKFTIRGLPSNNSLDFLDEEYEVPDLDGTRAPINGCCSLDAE
T3 sequence (Q9Y233 267-1055): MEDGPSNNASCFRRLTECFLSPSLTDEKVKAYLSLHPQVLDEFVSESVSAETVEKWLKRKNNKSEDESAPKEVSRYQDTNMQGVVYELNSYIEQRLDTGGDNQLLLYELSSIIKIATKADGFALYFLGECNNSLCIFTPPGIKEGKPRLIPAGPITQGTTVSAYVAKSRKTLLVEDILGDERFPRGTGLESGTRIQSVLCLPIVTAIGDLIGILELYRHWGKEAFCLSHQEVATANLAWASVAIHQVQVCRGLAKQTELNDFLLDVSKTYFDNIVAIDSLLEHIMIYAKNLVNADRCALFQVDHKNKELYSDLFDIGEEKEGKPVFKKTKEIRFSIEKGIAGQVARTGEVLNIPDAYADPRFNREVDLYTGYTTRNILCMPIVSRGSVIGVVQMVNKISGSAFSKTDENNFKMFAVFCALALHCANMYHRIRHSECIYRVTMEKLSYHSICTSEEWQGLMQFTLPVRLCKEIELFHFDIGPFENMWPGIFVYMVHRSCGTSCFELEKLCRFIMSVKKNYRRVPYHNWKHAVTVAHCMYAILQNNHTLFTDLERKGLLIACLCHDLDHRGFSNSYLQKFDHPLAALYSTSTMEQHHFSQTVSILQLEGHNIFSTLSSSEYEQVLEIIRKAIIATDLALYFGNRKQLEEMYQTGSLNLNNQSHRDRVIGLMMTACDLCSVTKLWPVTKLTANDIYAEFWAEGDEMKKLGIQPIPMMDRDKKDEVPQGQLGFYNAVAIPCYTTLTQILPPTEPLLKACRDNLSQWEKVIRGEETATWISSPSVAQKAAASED
T2 sequence (Q14432 whole entry): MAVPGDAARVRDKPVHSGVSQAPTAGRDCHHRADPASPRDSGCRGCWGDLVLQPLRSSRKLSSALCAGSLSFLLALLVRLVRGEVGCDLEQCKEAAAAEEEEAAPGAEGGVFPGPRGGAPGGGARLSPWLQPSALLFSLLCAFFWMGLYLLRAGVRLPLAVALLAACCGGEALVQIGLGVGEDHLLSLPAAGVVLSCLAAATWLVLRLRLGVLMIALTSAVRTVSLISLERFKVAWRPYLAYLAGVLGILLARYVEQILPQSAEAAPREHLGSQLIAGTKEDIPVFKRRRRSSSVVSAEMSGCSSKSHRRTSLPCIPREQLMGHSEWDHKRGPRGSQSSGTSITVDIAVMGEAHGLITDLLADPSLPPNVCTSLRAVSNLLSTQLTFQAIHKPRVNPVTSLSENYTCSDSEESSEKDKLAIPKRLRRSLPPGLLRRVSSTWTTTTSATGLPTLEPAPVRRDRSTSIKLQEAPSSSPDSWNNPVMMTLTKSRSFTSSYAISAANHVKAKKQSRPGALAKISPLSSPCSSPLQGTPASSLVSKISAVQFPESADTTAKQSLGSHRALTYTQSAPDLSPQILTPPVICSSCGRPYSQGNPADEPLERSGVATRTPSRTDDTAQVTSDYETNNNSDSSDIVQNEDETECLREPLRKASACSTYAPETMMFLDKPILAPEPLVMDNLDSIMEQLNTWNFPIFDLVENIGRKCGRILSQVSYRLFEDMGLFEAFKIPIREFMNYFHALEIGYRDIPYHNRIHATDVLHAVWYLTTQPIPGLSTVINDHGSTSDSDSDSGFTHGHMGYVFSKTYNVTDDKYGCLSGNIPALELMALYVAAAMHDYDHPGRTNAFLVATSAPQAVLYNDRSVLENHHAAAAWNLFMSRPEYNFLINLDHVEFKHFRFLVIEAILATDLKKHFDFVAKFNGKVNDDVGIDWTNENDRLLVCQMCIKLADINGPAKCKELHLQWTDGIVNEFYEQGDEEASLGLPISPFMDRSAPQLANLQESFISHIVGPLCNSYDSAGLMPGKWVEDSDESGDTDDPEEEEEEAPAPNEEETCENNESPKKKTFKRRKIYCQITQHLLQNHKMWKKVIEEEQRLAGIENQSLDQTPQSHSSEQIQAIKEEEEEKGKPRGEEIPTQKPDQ

| Structure (SMILES) | hPDE2A Emax [1] | hPDE2A pIC50 [1] | hPDE2A Emax ([1]; human recombinant PDE2A) | hPDE2A pIC50 [1, 4] | hPDE3B Emax [2] | hPDE10A2 Emax [3] | hPDE10A2 pIC50 [3] | IC50 [1, 4] | Emax ([1]; human recombinant PDE2A) | Emax [1] | IC50 [1] | IC50 [2] | Emax [2] | Emax [3] | IC50 [3] |
| --- | --- | --- | --- | --- | --- | --- | --- | --- | --- | --- | --- | --- | --- | --- | --- |
| C[C@@H]1CCN(C(=O)c2ccnc(Cl)c2F)C[C@H]1c1cc(C(F)F)nc2ncnn12 [Compound 55] | – | – | – | – | – | – | – | 0.0126 µM | 101% | 101% | 0.0126 µM | > 10 µM | 41% | 83% | 1.78 µM |
| C[C@@H]1CCN(C(=O)c2ccnn2C)C[C@H]1c1cc(C(F)F)nc2ncnn12 [Compound 57] | – | – | – | – | – | – | – | 0.0275 µM | 100% | 100% | 0.0275 µM | > 10 µM | 21% | 78% | 3.16 µM |
| C[C@@H]1CCN(C(=O)c2cn(C)cn2)C[C@H]1c1cc(C(F)F)nc2ncnn12 [Compound 58] | – | – | – | – | – | – | – | 0.0245 µM | 99% | 99% | 0.0245 µM | > 10 µM | 18% | 69% | 4.47 µM |
| Cc1cc(C(=O)N2[C@H]3CC[C@@H]2[C@H](c2cc(C(F)F)nc4ncnn24)CC3)c(F)cn1 [Compound 62] | – | – | – | – | – | – | – | – | – | 77% | 3.02 µM | > 10 µM | 8% | 36% | > 10 µM |
| Cc1cc(C(=O)N2CC[C@@H](C)[C@H](c3cc(C(F)F)nc4ncnn34)C2)c(C)s1 [Compound 65] | – | – | – | – | – | – | – | 0.00126 µM | 100% | 100% | 0.00126 µM | 6.76 µM | 70% | 95% | 0.251 µM |
| C[C@@H]1CCN(C(=O)c2ccn(C)c2)C[C@H]1c1cc(C(F)F)nc2ncnn12 [Compound 67] | – | – | – | – | – | – | – | 0.00257 µM | 99% | 99% | 0.00257 µM | > 10 µM | 49% | 94% | 0.288 µM |
| Cc1cc(C(=O)N2[C@H]3CC[C@H](c4cc(C(F)F)nc5ncnn45)[C@@H]2CC3)c(F)cn1 [Compound 86] | – | – | – | – | – | – | – | – | – | 100% | 0.0501 µM | > 10 µM | 34% | 40% | > 10 µM |

Other lines, results leading:

| hPDE2A Emax [1] | hPDE2A pIC50 [1] | hPDE2A Emax ([1]; human recombinant PDE2A) | hPDE2A pIC50 [1, 4] | hPDE3B Emax [2] | hPDE10A2 Emax [3] | hPDE10A2 pIC50 [3] | IC50 [1, 4] | Emax ([1]; human recombinant PDE2A) | Emax [1] | IC50 [1] | IC50 [2] | Emax [2] | Emax [3] | IC50 [3] | Structure (SMILES) |
| --- | --- | --- | --- | --- | --- | --- | --- | --- | --- | --- | --- | --- | --- | --- | --- |
| 98 | 8.17 | 98 | 8.17 | 41 | 95 | 6.63 | – | – | – | – | – | – | – | – | Cc1cc(C(=O)N2CC[C@H](C)[C@@H](c3cc(C#N)nc4ncnn34)C2)cc(C)n1 [Compound 26b] |
| – | – | – | – | – | – | – | 1.95 µM | 88% | 88% | 1.95 µM | > 10 µM | 31% | 28% | > 10 µM | C[C@H]1CCN(C(=O)c2ccc3ncsc3c2)C[C@]1(F)c1cc(C(F)F)nc2ncnn12 [Compound 34] |
| – | – | – | – | – | – | – | 0.00437 µM | 101% | 101% | 0.00437 µM | > 10 µM | 45% | 92% | 0.457 µM | CC(C)c1n[nH]cc1C(=O)N1CC[C@@H](C)[C@H](c2cc(C(F)F)nc3ncnn23)C1 [Compound 61] |
| – | – | – | – | – | – | – | 0.00724 µM | 100% | 100% | 0.00724 µM | 6.92 µM | 60% | 89% | 0.871 µM | C[C@@H]1CCN(C(=O)c2cccc3c2OC(F)(F)O3)C[C@H]1c1cc(C(F)F)nc2ncnn12 [Compound 63] |
| – | – | – | – | – | – | – | 2.95 µM | 81% | 81% | 2.95 µM | > 10 µM | 22% | 27% | > 10 µM | COc1c(C)cc(C(=O)N2CC[C@@H](C)[C@@](F)(c3cc(C(F)F)nc4ncnn34)C2)cc1C [Compound 75] |
| – | – | – | – | – | – | – | 7.08 µM | 59% | 59% | 7.08 µM | > 10 µM | 17% | 1% | > 10 µM | Cc1cc(C(=O)N2CC[C@@H](C)[C@@](F)(c3cc(C(F)F)nc4ncnn34)C2)cc(C)n1 [Compound 81] |
